According to paper PMC9228955, “Synthesis, Physicochemical, Labeling and In Vivo Characterization of ^44Sc-Labeled DO3AM-NI as a Hypoxia-Sensitive PET Probe” (Pharmaceuticals, 2022):

Key:
[1] = Octanol/water partition coefficient (logP) of labeled complexes; assay type: physicochemical; details: 1-octanol/water, triplicates
Procedure: (§1) Subsequently, the octanol/water partition coefficient (logP) of the labeled complexes was determined to be −3.89 for [^68Ga]Ga(DO3AM-NI) and −2.59 for [^44Sc]Sc(DO3AM-NI). […] To assess the labeled compounds’ stability, the chelates were mixed with the solution of mouse plasma, Na2H2EDTA and oxalic acid, respectively. Aliquots were then taken at different time points (0, 60, 120 and 240 min) and injected into the radio-HPLC column, and the chromatograms were analyzed. After 240 min, the RCP of the samples was above 93% in all three cases.
A 10 µL volume of [^68Ga]Ga(DO3AM-NI) and [^44Sc]Sc(DO3AM-NI) solution (~5 MBq) was mixed with 500 µL of 1-octanol and 490 µL of water in an Eppendorf vial, respectively. The mixture was shaken with a vortex shaker (600 rpm) for 10 min and centrifuged (6000 rpm) for 5 min. Then, 100 µL from the octanol phase and 1 μL from the aqueous phase were pipetted into vials, and the aqueous aliquot was diluted to 100 µL with water in order to minimize the effects of sample geometry and the high difference of activity concentrations in the two solvents. The radioactivity of the fractions was determined with a gamma counter. The measurements were performed in triplicates for both labeled compounds.

[2] = Stability of labeled complexes in mouse plasma, Na2H2EDTA and oxalic acid by radio-HPLC; assay type: in vitro ADME
Procedure: as §1
A 10 µL volume of [^68Ga]Ga(DO3AM-NI) and [^44Sc]Sc(DO3AM-NI) solution was added to the solution of 90 µL of mouse plasma, Na2H2EDTA (0.01 M) and oxalic acid (0.01 M), respectively. Samples were analyzed by radio-HPLC at the beginning and after 60, 120 and 240 min. The analytical conditions were the same as detailed for the quality control of the labeled compound.

[3] = Ex vivo biodistribution in healthy control SCID mice; set-up: species or system CB17 SCID mice; details: mean ± SD
Procedure: Ex vivo biodistribution studies were carried out 90 min and 240 min after intravenous injection of ^44Sc- or ^68Ga-labeled DO3AM-NI, and the accumulated activities of the organs and tissues were determined using a gamma counter. By the quantitative analysis of the ex vivo data, significant differences were found between the %ID/g values when ^44Sc- and ^68Ga-labeled DO3AM-NI accumulations were compared. […] In contrast, e.g., [^18F]fluorine- [28], [^131I]iodine- [29], [^99mTc]technetium- [30] and [^64Cu]copper-labeled nitroimidazole-based probes, due to their chemical properties, were mainly metabolized via the liver, and the large abdominal accumulation impaired the evaluation of abdominal tumors in the PET images. The ^44Sc- and ^68Ga-labeled nitroimidazole derivatives had more favorable properties in terms of the reporting and evaluation of PET images and due to their rapid elimination through the urinary system.
(§2) For the determination of ex vivo biodistribution of the radiotracers, control and KB tumor-bearing mice were injected intravenously with 8.42 ± 0.38 MBq of ^68Ga- or ^44Sc-labeled DO3AM-NI via the tail vein. Mice were euthanized with 5% isoflurane 90 min or 4 h after intravenous radiotracer injection. Three tissue samples were taken from the selected organs, and their weight and radioactivity were measured with a calibrated gamma counter (Perkin-Elmer Packard Cobra, Waltham, MA, USA). The radiotracer uptake was expressed as %ID/g tissue.

KB tumors [4] = assay: In vivo PET/MRI imaging of KB tumor-bearing mice, quantitative SUV analysis; set-up: species or system CB17 SCID mice; details: 240 min after injection
Procedure: The tumor-specific accumulation of [^44Sc]Sc(DO3AM-NI) and [^68Ga]Ga(DO3AM-NI) was investigated by PET/MRI imaging 90 and 240 min after radiotracer injection using KB tumor-bearing mice. The subcutaneously growing KB tumors were clearly visualized using [^44Sc]Sc(DO3AM-NI) 90 and 240 min post injection with relatively higher SUVmean and SUVmax values (SUVmean: 1.46 ± 0.32 and SUVmax: 2.35 ± 0.47 at 90 min and SUVmean: 0.67 ± 0.03 and SUVmax: 1.55 ± 0.28 at 240 min). Lower accumulation was found in the same KB tumors by using the ^68Ga-labeled molecule (SUVmean: 0.79 ± 0.10, SUVmax: 1.94 ± 0.40 at 90 min and SUVmean: 0.51 ± 0.09 and SUVmax: 1.23 ± 0.10 at 240 min); however, this difference between the radiotracers was not significant (Figure 4E). […] In contrast, no significant differences were found between the T/M SUV values of the two radiotracers 90 min post injection (Figure 4F).
(§3) For tumor induction, SCID mice were injected with 5x10^6 KB tumor cells in 0.9% NaCl (100 µL) subcutaneously into the left shoulder area. The tumor growth was assessed by caliper measurements, and tumor size was calculated using the following formula: (largest diameter × smallest diameter^2)/2. In vivo experiments were carried out approximately 13 ± 1 days after […] injection of tumor cells at the tumor volume of approximately 110 mm^3.
(§4) For in vivo imaging studies, healthy control and KB tumor-bearing CB17 SCID mice were injected with 8.42 ± 0.38 MBq of ^68Ga- or ^44Sc-labeled DO3AM-NI via the lateral tail vein 13 ± 1 days after the inoculation of KB tumor cells. Then, 65 and 225 min after radiotracer injection, mice were anaesthetized by 3% isoflurane (Forane) with a dedicated small animal anesthesia device and whole-body T1-weighted MRI scans were performed (3D GRE EXT multi-FOV; TR/TE 15/2 ms; phase: 100; FOV 60 mm; NEX 2) using the preclinical nanoScan PET/MRI system with 1 Tesla magnetic field (Mediso Ltd., Hungary). After MRI imaging, 20 min static whole-body PET scans were acquired (90 min and 4 h after radiotracer injection).
Quantitative radiotracer uptake was expressed in terms of standardized uptake value (SUV), SUV = [VOI activity (Bq/mL)]/[injected activity (Bq)/animal weight (g)], assuming a density of 1 g/mL. Volumes of interest (VOI) were manually drawn around the edge of the organ or tumor activity using the InterView™ FUSION (Mediso Ltd., Hungary) image analysis software. Tumor-to-muscle (T/M) ratios were computed as the ratio between the activity in the tumor VOI and in the background (muscle) VOI. Skeletal muscles of the right shoulder area were used as background.

KB tumors [5] = assay: Ex vivo biodistribution in KB tumor xenografts; set-up: species or system CB17 SCID mice; details: for KB tumor uptake: 13 ± 1 days after subcutaneous tumor induction, n = 5, mean ± SD
Procedure: For the assessment of the accumulation in the tumors of [^44Sc]Sc(DO3AM-NI) and [^68Ga]Ga(DO3AM-NI), ex vivo biodistribution studies were performed 90 and 240 min post injection using KB tumor xenografts.
as §3, §2

[6] = In vivo PET/MRI imaging of healthy control SCID mice, quantitative SUV analysis; set-up: species or system CB17 SCID mice; details: 90 and 240 min after tracer injection
Procedure: The biodistribution of ^44Sc- and ^68Ga-labeled DO3AM-NI was investigated using healthy control and KB tumor-bearing SCID mice. PET/MRI imaging and ex vivo studies were performed 90 and 240 min after intravenous injection of ^44Sc- or ^68Ga-labeled DO3AM-NI. By the qualitative analysis of the PET/MRI images, the kidneys and the bladder with urine were clearly visualized using both radiotracers at each investigated time point; however, in other abdominal and thoracic organs, low uptake was observed.
as §4, with “After MRI imaging, 20 min static whole-body PET scans were acquired (90 min and 4 h after radiotracer injection).” left out
Quantitative radiotracer uptake was expressed in terms of standardized uptake value (SUV), SUV = [VOI activity (Bq/mL)]/[injected activity (Bq)/animal weight (g)], assuming a density of 1 g/mL. […]

octanol/water partition coefficient (logP) [1]: −3.89 | RCP after 240 min ([2]; Na2H2EDTA (0.01 M)): above 93% | RCP after 240 min ([2]; mouse plasma): above 93% | RCP after 240 min ([2]; oxalic acid (0.01 M)): above 93% | Blood uptake ([3]; 90 min after i.v. injection): 0.81 ± 0.22 %ID/g | Fat uptake ([3]; 90 min after i.v. injection): 0.13 ± 0.10 %ID/g | Heart uptake ([3]; 90 min after i.v. injection): 0.26 ± 0.06 %ID/g | Kidney uptake ([3]; 90 min after i.v. injection): 1.32 ± 0.47 %ID/g | Large intestine uptake ([3]; 90 min after i.v. injection): 0.20 ± 0.13 %ID/g | Liver uptake ([3]; 90 min after i.v. injection): 0.43 ± 0.11 %ID/g | Lung uptake ([3]; 90 min after i.v. injection): 0.49 ± 0.08 %ID/g | Muscle uptake ([3]; 90 min after i.v. injection): 0.10 ± 0.03 %ID/g | Small intestine uptake ([3]; 90 min after i.v. injection): 0.25 ± 0.10 %ID/g | Spleen uptake ([3]; 90 min after i.v. injection): 0.29 ± 0.14 %ID/g | Stomach uptake ([3]; 90 min after i.v. injection): 0.21 ± 0.04 %ID/g | Urine uptake ([3]; 90 min after i.v. injection): 65.94 ± 5.21 %ID/g | Blood uptake ([3]; 240 min after i.v. injection): 0.65 ± 0.11 %ID/g | Fat uptake ([3]; 240 min after i.v. injection): 0.12 ± 0.08 %ID/g | Heart uptake ([3]; 240 min after i.v. injection): 0.22 ± 0.04 %ID/g | Kidney uptake ([3]; 240 min after i.v. injection): 1.21 ± 0.17 %ID/g | Large intestine uptake ([3]; 240 min after i.v. injection): 0.15 ± 0.06 %ID/g | Liver uptake ([3]; 240 min after i.v. injection): 0.37 ± 0.10 %ID/g | Lung uptake ([3]; 240 min after i.v. injection): 0.46 ± 0.09 %ID/g | Muscle uptake ([3]; 240 min after i.v. injection): 0.06 ± 0.03 %ID/g | Small intestine uptake ([3]; 240 min after i.v. injection): 0.14 ± 0.04 %ID/g | Spleen uptake ([3]; 240 min after i.v. injection): 0.32 ± 0.18 %ID/g | Stomach uptake ([3]; 240 min after i.v. injection): 0.22 ± 0.06 %ID/g | Urine uptake ([3]; 240 min after i.v. injection): 17.08 ± 7.97 %ID/g | tumor-to-muscle ratio T/M SUVmax (KB tumors [4]): 41.72 ± 13.61 | tumor-to-muscle ratio T/M SUVmean (KB tumors [4]): 85.66 ± 6.06 | T/M (tumor-to-muscle ratio) (KB tumors [5]; 90 min after injection): 6.28 ± 1.11 | KB tumor uptake (KB tumors [5]; 90 min after injection): 0.62 ± 0.10 %ID/g | T/M (tumor-to-muscle ratio) (KB tumors [5]; 240 min after injection): 7.51 ± 1.13 | KB tumor uptake (KB tumors [5]; 240 min after injection): 0.46 ± 0.07 %ID/g | uptake (SUV) in liver, spleen, kidney, intestines, lung, heart and brain compared with [^44Sc]Sc(DO3AM-NI) [6]: significantly (p ≤ 0.01) higher
Structure (SMILES): O=C([O-])CN1CCN(CC(=O)[O-])CCN(CC(=O)NCCn2ccnc2[N+](=O)[O-])CCN(CC(=O)[O-])CC1.[68Ga+3] [[^68Ga]Ga(DO3AM-NI)]
